Results from patent US12636373B2, “Prodrugs with a tridentate self-immolative linker” (The General Hospital Corporation, priority 2018, dated 2026).
Where a SMILES comes first, the peptide text is derived from it. [ ]: non-standard residue; d: D form. The star is where a group is joined. ξ: configuration not given here. Dolaproine = CO[C@@H]([C@@H]1CCCN1)[C@@H](C)C(=O)O; X1 = C=CCOC(=O)Nc1ccc(C(OC(=O)*)C(=O)NCC)cc1; Dil = CC[C@H](C)[C@H](NC)[C@@H](CC(=O)O)OC; X2 = C[C@@H](N*)[C@@H](O)c1ccccc1; NMeV = CN[C@H](C(=O)O)C(C)C; ξV = CC(C)C(N)C(=O)O

How the values were obtained:
[1] = test system: MC38 murine colon adenocarcinoma tumors; test: MC38 syngeneic tumor growth; assay type: in vivo, C57BL/6 mice; conditions: combined with Pd-NP
Method: (§1) Cell lines and animal models: All animal research was performed in accordance with guidelines from the Institutional Subcommittee on Research Animal Care. HT1080 xenografts were generated by 2 million cells implanted subcutaneously in flanks of 6-8 week old female nu/nu mice (Cox7/MGH) in 50 μl PBS. MC38 syngeneic tumors were formed by intradermal implantation of 2 million cells in 50 μl PBS, in the flanks of 7-12 week old female C57BL/6 mice (JAX), following previously described inoculation protocols.^33 Four blinded caliper measurements per tumor were used to measure tumor size according to the formula V=(width)^2(length)/2; animals were randomly assigned to treatment groups. Experiments build on prior imaging, biodistribution, and longitudinal tumor growth data that likewise guided determination of experimental sample sizes.^5, 30 Treatment began approximately 3 weeks post-implantation once tumors reached an average diameter of 5.5±1.8 mm in the HT1080 model (mean±std. dev.; n=72), and roughly 2 weeks post-implantation in the MC38 model once tumors reached an average diameter of 5.45±1.2 mm (mean±std. dev.; n=14). […] Blood chemistry readouts were measured from plasma collected in heparinized tubes by terminal cardiac puncture under vaporized isoflurane anesthesia, using the MGH Veterinary Clinical Pathology lab and the automated DriChem blood chemistry analyzer (Heska). […]

HT1080-EB3-mApple cells = test: EB3 microtubule comet imaging in live cells; assay type: cell-based, human; conditions: 24 h; for microtubule comets (prevalence and growth speed): individual treatment, 1 μM MMAE or C16proMMAE, 35 μM Pd-NP
Method: Microtubule imaging. EB3 tracking was performed using an FV1000 confocal laser scanning microscope on a 37° C. heated stage, with XLUMPLFLN 20× (NA 1.0) or LUMFLN 60× (NA 1.1) water-immersion objectives, 1-10× digital zoom, 559-nm diode laser, and BA575-620 emission filter (all Olympus America). […] EB3 tracks were automatically identified and analyzed from time-lapse datasets using u-track software,^35 with tuning of maximum gap number and minimum frame number across datasets to account for differences in image quality; ambiguous and spurious tracks and artifacts were excluded according to requirements for directional continuity (directional persistence as net displacement/path length>0.8) and movement (value>3 pixels). Speed was determined between frames in each track and averaged for each track by computing the mean of the middle 80% of between-frame values. Track overlay figures were produced using a custom python script. Averaged track speeds excluded outliers falling more than 1.5× the interquartile range for each biological replicate.

[2] = test system: HT1080 fibrosarcoma cancer cells; test: Resazurin-based cytotoxicity assay, 72 h
Method: In vitro NP characterization: 5,000 cells per well were added to 96-well plates for cytotoxicity assessment; cells were treated after overnight seeding with compound or the appropriate buffer control (drug-free PLGA-PEG NP), and assessed for viability 72 h later using PrestoBlue (Life Technologies) following the manufacturer's protocol.

[3] = Body weight and blood chemistry of treated tumor-bearing animals; assay type: in vivo, mice; conditions: dual Pd-NP and C16proMMAE
Method: as §1

[4] = test system: panel of 4 cancer cell lines; test: Cytotoxicity across a panel of cancer cell lines, 72 h; assay type: cell-based; conditions: prodrug alone, concentrations ≤10 μM
[5] = test system: subcutaneous HT1080 xenograft tumors; test: HT1080 xenograft tumor growth; assay type: in vivo, nu/nu mice
Method: as §1

[6] = In vitro NP prodrug release in PBS; assay type: physicochemical; conditions: over 72 h at 37° C. in PBS
Method: Transmission electron microscopy (TEM) was performed in the Microscopy Core of the Center for Systems Biology/Program in Membrane Biology (MGH). […] Excess solution was blotted, grids were stained with phosphotungstic acid, and then blotted, dried and imaged. In vitro NP prodrug release was performed by incubating in PBS at 37° C., separating NPs using a 30 kDa molecular weight cutoff filter (Millipore Amicon) after 72 h, and measuring flow-through for drug content by absorbance (Nanodrop). NP was dissolved in DMF and also measured for drug content by absorbance. Pd-NP, Alloc2R110 and its nanoformulation, and all Pd compounds were synthesized and characterized as previously described.^5

[7] = cited from earlier work
[8] = Nano-encapsulation (loading) efficiency, PLGA-PEG nanoprecipitation; assay type: physicochemical; conditions: PLGA-PEG polymeric micellar formulation
Method: Initial experiments determined up to 1 mg of C16 prodrug could be used with the same polymer composition with no detectable loss in loading efficiency. For fluorescence-based imaging and flow-cytometric detection of NP uptake, PLGA-BODIPY630 was used instead of PLGA (described previously).^5 NP drug and Pd compound loadings were determined by absorbance (Nanodrop spectrophotometer), interpolation from a standard curve (R^2>0.99) after 1:10 dilution in DMF. Size and zeta potential measurements were performed using dynamic light scattering (Malvern Zetasizer). Prodrug loading efficiency is defined as the fraction of initial drug used in the nano-precipitation reaction that was successfully encapsulated and recovered in final NP product.

SMILES	tumor growth [1]	tumor growth at 2 days following the 2nd round of treatment [1]	microtubule comets (HT1080-EB3-mApple cells; 1 μM C16proMMAE combined with 35 μM Pd-NP)	microtubule comets (prevalence and growth speed) (HT1080-EB3-mApple cells)	enhanced cytotoxicity with sub-micromolar Pd-NP ([2]; HT1080, sub-micromolar Pd-NP)	IC50 ([2]; Homo sapiens, HT-1080, 72 h, read-out: IC50 upon Pd-NP activation)	level of prodrug activation based on cytotoxicity ([2]; Pd-NP concentration 50 μM)	concentration at which cytotoxic upon activation by Pd-NP ([2]; with Pd-NP)	turn-on capacity in cytotoxicity ([2]; with vs without Pd-NP)	drug-induced weight loss ([3]; HT1080 or MC38 tumor-bearing animals)	blood chemistry analysis ([3]; MC38 tumor-bearing mice)	impact on cell growth [4]	tumor growth at 2 days following the 2nd round of treatment ([5]; combined with Pd-NP)	reduction in prodrug dose required for controlling tumor growth in vivo ([5]; compared to Alloc-DOX)	release of the prodrug payload from the nanoformulation [6]	toxicity at equivalent doses [7]	nano-encapsulation efficiency [8]
C=CCOC(=O)Nc1ccc(C(OC(=O)N(C)[C@H](C(=O)NC(C(=O)N(C)[C@@H]([C@@H](C)CC)[C@@H](CC(=O)N2CCC[C@H]2[C@H](OC)[C@@H](C)C(=O)N[C@H](C)[C@@H](O)c2ccccc2)OC)C(C)C)C(C)C)C(=O)NCC)cc1 (stereo partly drawn) [C16proMMAE, Alloc-SIL-C16-MMAE] (X1-[NMeV][ξV][Dil][Dolaproine]-X2)	effective at slowing tumor growth	completely blocked	complete elimination of visible comets	not substantially perturbed	> 10 fold	0.015 nM	> 90%	< 0.1 nM	> 70,000 ×	did not show drug-induced weight loss	no signs of drug-induced liver or kidney toxicity	no detectable impact on cell growth	completely blocked	50 fold	< 10%		
CC[C@H](C)[C@@H]([C@@H](CC(=O)N1CCC[C@H]1[C@H](OC)[C@@H](C)C(=O)N[C@H](C)[C@@H](O)c1ccccc1)OC)N(C)C(=O)[C@@H](NC(=O)[C@@H](NC)C(C)C)C(C)C [MMAE, monomethyl auristatin E] (H-[NMeV]V[Dil][Dolaproine]-X2)				complete elimination of visible comets												severely toxic and above the maximum tolerated dose	undetectable
